The text below walks through data of patent publication US12398154B2, “Azaquinazoline pan-KRas inhibitors” (Mirati Therapeutics, Inc., priority 2020, dated 2025).

For orientation: IC50 means the concentration that gives 50% inhibition.

The test system of one experiment is pERK in H460 cells. Description: Inhibition of KRas phosphorylation of ERK (Cisbio HTRF pERK assay). The conditions noted are these: Homo sapiens, NCI-H460, read-out: Inhibition (HTRF IC50) of KRas-mediated Phosphorylation of ERK, H460.
A further experiment concerns pERK in HCT116 cells. Described as above. The conditions noted are these: Homo sapiens, HCT-116, read-out: Inhibition (HTRF IC50) of KRas-mediated Phosphorylation of ERK, HCT116. For orientation: TR-FRET usually uses a lanthanide donor and a delayed reading to cut background.
In another experiment the test system is pERK in H727 cells. The experiment is described as above. The settings on record: Homo sapiens, NCI-H727, read-out: Inhibition (HTRF IC50) of KRas-mediated Phosphorylation of ERK, H727.
A further experiment has as its system pERK in MKN1 cells. The description is as above. The settings on record: Homo sapiens, MKN-1, 3 h, read-out: Inhibition (HTRF IC50) of KRas-mediated Phosphorylation of ERK, MKN1.
A further experiment relates to pERK in A549 cells. The description is as above. The settings on record: Homo sapiens, A549, read-out: Inhibition (HTRF IC50) of KRas-mediated Phosphorylation of ERK, A549.
In experiment [1] the test system is phospho-ERK in MKN1 (WTdep) cells. Description: Inhibition of KRas-mediated phosphorylation of ERK (in-cell western). Type of experiment: cell-based. The conditions noted are these: Homo sapiens, MKN-1, 3 hours compound, phospho-ERK normalized to GAPDH. In a few lines: (§1)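 Cells were treated with compound for 3 hours (0.5% DMSO final), then fixed with formaldehyde and permeabilized with ice-cold methanol. Phospho-ERK (Thr202/Tyr204) was detected by antibody and normalized to GAPDH per well, expressed as percent of DMSO control, and IC50 obtained by 4-parameter fit.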

Experiment [2] relates to phospho-ERK in NCI-H460 (Q61H) cells. The experiment is described as above. The class given is cell-based. The conditions noted are these: Homo sapiens, NCI-H460, 3 h, 3 hours compound, phospho-ERK normalized to GAPDH. Summed up:
as §1

Experiment [3] deals with phospho-ERK in HCT116 (G13D) cells. The experiment is described as above. The conditions noted are these: Homo sapiens, HCT-116, 3 hours compound, phospho-ERK normalized to GAPDH. The class given is cell-based. Summed up: as §1
The subject of experiment [4] is phospho-ERK in NCI-H358 (G12C) cells. The experiment is described as above. The class given is cell-based. The settings on record: Homo sapiens, 3 hours compound, phospho-ERK normalized to GAPDH. In a few lines: as §1
Experiment [5] deals with phospho-ERK in AsPC-1 (G12D) cells. The experiment is described as above. The class given is cell-based. The settings on record: Homo sapiens, ASPC1, 3 h, 3 hours compound, phospho-ERK normalized to GAPDH. In a few lines:
as §1

Experiment [6] deals with phospho-ERK in NCI-H727 (G12V) cells. Described as above. Type of experiment: cell-based. The conditions noted are these: Homo sapiens, NCI-H727, 3 h, 3 hours compound, phospho-ERK normalized to GAPDH. In a few lines:
as §1

In a further experiment the test system is pERK in ASPC1 cells. Description: Inhibition of KRas phosphorylation of ERK (Cisbio HTRF pERK assay). The conditions noted are these: Homo sapiens, ASPC1, read-out: Inhibition (HTRF IC50) of KRas-mediated Phosphorylation of ERK, AsPC-1.
For the next experiment, the system named is pERK in PSN1 cells. Described as above. The settings on record: Homo sapiens, PSN1, 3 h, read-out: Inhibition (HTRF IC50) of KRas-mediated Phosphorylation of ERK, PSN1.
For experiment [7], the system named is phospho-ERK in A549 (G12S) cells. Description: Inhibition of KRas-mediated phosphorylation of ERK (in-cell western). The class given is cell-based. The conditions noted are these: Homo sapiens, 3 hours compound, phospho-ERK normalized to GAPDH. Summed up: as §1
The next experiment concerns the target KRas G12R (Homo sapiens, UniProt P01116, G12R). Description: biochemical.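 Note: TR-FRET displacement assay of compound binding to KRas, read after one hour at room temperature, potency from a four-parameter fit of percent-of-control values.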
A further experiment has as its target KRas G12C (Homo sapiens, UniProt P01116, G12C). Description: biochemical.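 Note: binding to KRas assessed by TR-FRET displacement after one hour incubation at room temperature, potency fitted from percent-of-control values.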
The next experiment deals with pERK in H358 cells. In words: Inhibition of KRas phosphorylation of ERK (Cisbio HTRF pERK assay). The settings on record: Homo sapiens, NCI-H358, read-out: Inhibition (HTRF IC50) of KRas-mediated Phosphorylation of ERK, H358.
In a further experiment the target is KRas G12D (Homo sapiens, UniProt P01116, G12D). In words: biochemical.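 Note: TR-FRET displacement binding assay on KRas, read after a one-hour incubation at room temperature, IC50 fitted from percent-of-control values.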
A further experiment addresses KRas G12V (Homo sapiens, UniProt P01116, G12V). In words: biochemical.

Sequence of KRas G12V (P01116 1-169 isoform P01116-2 G12V): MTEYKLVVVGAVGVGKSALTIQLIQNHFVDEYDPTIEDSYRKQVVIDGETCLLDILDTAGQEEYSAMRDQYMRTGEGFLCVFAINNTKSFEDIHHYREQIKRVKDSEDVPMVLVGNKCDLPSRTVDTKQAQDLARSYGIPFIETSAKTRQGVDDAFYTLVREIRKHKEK
Sequence of KRas G12D (P01116 1-169 isoform P01116-2 G12D): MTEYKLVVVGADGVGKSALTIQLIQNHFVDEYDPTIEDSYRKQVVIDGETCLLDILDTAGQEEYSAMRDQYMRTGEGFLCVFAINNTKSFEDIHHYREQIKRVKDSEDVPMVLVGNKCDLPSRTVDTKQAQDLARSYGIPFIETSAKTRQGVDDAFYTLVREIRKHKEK
Sequence of KRas G12R (P01116 1-169 isoform P01116-2 G12R): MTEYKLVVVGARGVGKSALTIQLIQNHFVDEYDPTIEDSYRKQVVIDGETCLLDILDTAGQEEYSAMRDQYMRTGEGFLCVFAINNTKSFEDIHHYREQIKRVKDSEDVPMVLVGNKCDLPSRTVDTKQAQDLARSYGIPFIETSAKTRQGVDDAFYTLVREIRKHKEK
Sequence of KRas G12C (P01116 1-169 isoform P01116-2 G12C): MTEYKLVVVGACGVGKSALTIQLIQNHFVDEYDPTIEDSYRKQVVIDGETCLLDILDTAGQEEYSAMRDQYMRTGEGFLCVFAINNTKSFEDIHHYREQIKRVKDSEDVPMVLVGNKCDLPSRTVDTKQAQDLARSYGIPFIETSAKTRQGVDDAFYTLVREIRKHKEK

Consider `CCc1c(F)ccc2cc(O)cc(-c3ncc4c(N5CCC[C@@H](O)C5)nc(OC[C@@]56CCCN5C[C@H](F)C6)nc4c3F)c12` [Example 193], for which the IC50 in the experiment on pERK in H460 cells turned out to be 42 nM; in the experiment on pERK in HCT116 cells it was 82 nM; in the experiment with pERK in H727 cells it was 36 nM; with pERK in MKN1 cells it was 7 nM; with pERK in A549 cells, 44 nM; in experiment [1] it was 4 nM. Also, the IC50 was 44 nM in [2]; 63 nM in experiment [3]; 41 nM in experiment [4]; 94 nM in [5]; 133 nM in [6]; 8 nM in the experiment on pERK in ASPC1 cells. The 50% inhibitory concentration (IC50) in the experiment with pERK in PSN1 cells amounted to 3790 nM.

Take `CCc1c(F)ccc2cc(O)cc(-c3ncc4c(N5CCOC[C@@](C)(O)C5)nc(OC[C@@]56CCCN5C[C@H](F)C6)nc4c3F)c12` [Example 200]: the IC50 with pERK in H460 cells was 5 nM; in the experiment with pERK in HCT116 cells it was 11 nM; in the experiment on pERK in H727 cells it was 6 nM; in the experiment on pERK in MKN1 cells, 2 nM; with pERK in A549 cells, 5 nM; in experiment [1], 3 nM. In addition, the IC50 in [2] was determined as 22 nM; in experiment [7] it was 3 nM; in experiment [3] it was 21 nM; in experiment [4] it was 13 nM; in experiment [5], 47 nM; in experiment [6], 67 nM. In addition, the IC50 in the experiment on pERK in ASPC1 cells amounted to 3 nM; in the experiment with pERK in PSN1 cells it was 1010 nM.

Consider `CCc1c(F)ccc2cc(O)cc(-c3ncc4c(N5CCC[C@@](C)(O)C5)nc(OCC5(CN6CCCC6)CC5)nc4c3F)c12` [Example 202, (3R)-1-[7-(8-ethyl-7-fluoro-3-hydroxy-1-naphthyl)-8-fluoro-2-[[1-(pyrrolidin-1-ylmethyl)cyclopropyl]methoxy]pyrido[4,3-d]pyrimidin-4-yl]-3-methyl-piperidin-3-ol], for which the IC50 in the experiment with pERK in H460 cells was 28 nM; in the experiment with pERK in HCT116 cells, 47 nM; against KRas G12R, no more than 2 nM; with pERK in H727 cells, 33 nM; against KRas G12C, no more than 2 nM; in the experiment with pERK in MKN1 cells it was 5 nM. The half-inhibitory concentration (IC50) is 4 nM in the experiment with pERK in H358 cells; no more than 2 nM against KRas G12D; 9 nM with pERK in A549 cells; 3 nM in experiment [1]; 74 nM in experiment [2]; 60 nM in experiment [5]. Besides, the IC50 in [6] was 159 nM; with pERK in ASPC1 cells it was 7 nM; in the experiment with pERK in PSN1 cells, 2490 nM; against KRas G12V, no more than 2 nM.

`CCc1c(F)ccc2cc(O)cc(-c3ncc4c(N5CCC[C@@](C)(O)C5)nc(OC[C@]56CCCN5[C@H](CO)CC6)nc4c3F)c12` [Example 302, (R)-1-(7-(8-ethyl-7-fluoro-3-hydroxynaphthalen-1-yl)-8-fluoro-2-(((3S,7aR)-3-(hydroxymethyl)tetrahydro-1H-pyrrolizin-7a(5H)-yl)methoxy)pyrido[4,3-d]pyrimidin-4-yl)-3-methylpiperidin-3-ol]: the IC50 with pERK in H460 cells is 120 nM; with pERK in HCT116 cells, 179 nM; on KRas G12R, no more than 2 nM; in the experiment on pERK in H727 cells, 82 nM; in the experiment with pERK in MKN1 cells, 3 nM; in the experiment on pERK in H358 cells it was 26 nM. Also, the half-maximal inhibitory concentration (IC50) on KRas G12D was no more than 2 nM; with pERK in A549 cells, 65 nM; in experiment [1], 5 nM; in [2] it was 193 nM; in experiment [5] it was 152 nM; in experiment [6] it was 360 nM. Besides, the results for the half-maximal inhibitory concentration (IC50) with pERK in ASPC1 cells, in the experiment on pERK in PSN1 cells and at KRas G12V were 31 nM, 2530 nM and no more than 2 nM, respectively.
